From PubChem BioAssay (NCI)
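Cells were grown in 96-well plates and exposed to each compound for 48 hours at five concentrations; endpoints were interpolated linearly between bracketing concentrations, or set to the highest concentration if not reached. GI50 marks 50% less growth. TGI: total growth inhibition.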

Assays:
Test in all cases: DTP human tumour cell line panel, 48 h
[1] = tested on: SW-620 colon
[2] = tested on: MALME-3M melanoma
[3] = tested on: CAKI-1 renal
[4] = tested on: SN12C renal
[5] = tested on: U251 CNS
[6] = tested on: KM20L2 colon
[7] = tested on: SK-MEL-2 melanoma
[8] = tested on: OVCAR-5 ovarian
[9] = tested on: KM12 colon
[10] = tested on: LXFL 529 NSCLC
[11] = tested on: RXF 393 renal
[12] = tested on: M14 melanoma
[13] = tested on: CCRF-CEM leukemia
[14] = tested on: HOP-18 NSCLC
[15] = tested on: SNB-75 CNS
[16] = tested on: DLD-1 colon
[17] = tested on: DMS 273 small cell lung
[18] = tested on: A549 NSCLC
[19] = tested on: TK-10 renal
[20] = tested on: HCT-15 colon
[21] = tested on: SK-OV-3 ovarian
[22] = tested on: HOP-62 NSCLC
[23] = tested on: SF-295 CNS
[24] = tested on: OVCAR-8 ovarian
[25] = tested on: SK-MEL-5 melanoma
[26] = tested on: RPMI-8226 leukemia
[27] = tested on: MOLT-4 leukemia
[28] = tested on: IGROV1 ovarian
[29] = tested on: HT29 colon
[30] = tested on: HCC-2998 colon
[31] = tested on: SK-MEL-28 melanoma
[32] = tested on: LOX IMVI melanoma
[33] = tested on: M19-MEL melanoma
[34] = tested on: HOP-92 NSCLC
[35] = tested on: COLO 205 colon
[36] = tested on: A498 renal
[37] = tested on: NCI-H460 lung
[38] = tested on: HL-60(TB) leukemia
[39] = tested on: UO-31 renal
[40] = tested on: K-562 leukemia
[41] = tested on: NCI-H226 lung
[42] = tested on: 786-0 renal
[43] = tested on: SNB-19 CNS
[44] = tested on: HCT-116 colon
[45] = tested on: OVCAR-3 ovarian
[46] = tested on: NCI-H522 lung
[47] = tested on: UACC-257 melanoma
[48] = tested on: SF-268 CNS
[49] = tested on: OVCAR-4 ovarian
[50] = tested on: SR leukemia
[51] = tested on: UACC-62 melanoma
[52] = tested on: NCI-H23 lung
[53] = tested on: EKVX NSCLC
[54] = tested on: ACHN renal
[55] = tested on: SF-539 CNS
[56] = tested on: T-47D breast
[57] = tested on: MDA-N
[58] = tested on: MCF7 breast
[59] = tested on: NCI/ADR-RES ovarian
[60] = tested on: MDA-MB-435
[61] = tested on: PC-3 prostate
[62] = tested on: HS 578T breast
[63] = tested on: MDA-MB-231 breast
[64] = tested on: DU-145 prostate
[65] = tested on: BT-549 breast

With `[O-]c1ccccc1C=NCCN=Cc1ccccc1[O-].[O]=[U+2]=[O]` the GI50 [1] was greater than 100 µM, the TGI [1] was greater than 100 µM and the GI50 [2] was 39.7 µM. It also gave a TGI [2] greater than 63.5 µM, a GI50 [3] greater than 46.7 µM and a TGI [3] greater than 67.6 µM. For the same molecule, the GI50 [4] was 28.4 µM, the TGI [4] was greater than 63.4 µM and the GI50 [5] was 19.3 µM. For the same molecule, the TGI [5] was 39.1 µM, the GI50 [6] was greater than 100 µM and the TGI [6] was greater than 100 µM. For the same molecule, the GI50 [7] was 22 µM, the TGI [7] was greater than 62.7 µM and the GI50 [8] was greater than 100 µM. It also gave a TGI [8] greater than 100 µM, a GI50 [9] of 57.1 µM and a TGI [9] greater than 100 µM. It also gave a GI50 [10] of 17.8 µM, a TGI [10] of 53.3 µM and a GI50 [11] of 24.1 µM. For the same molecule, the TGI [11] was 48.5 µM, the GI50 [12] was 40.9 µM and the TGI [12] was greater than 85.8 µM. For the same molecule, the GI50 [13] was 35.3 µM, the TGI [13] was greater than 100 µM and the GI50 [14] was 31.2 µM. For the same molecule, the TGI [14] was greater than 77.1 µM, the GI50 [15] was 22.9 µM and the TGI [15] was 70.2 µM. The GI50 [16] was 27 µM, the TGI [16] was greater than 100 µM and the GI50 [17] was 32.5 µM. For the same molecule, the TGI [17] was greater than 100 µM, the GI50 [18] was 43.1 µM and the TGI [18] was greater than 100 µM. The GI50 [19] was 26.3 µM, the TGI [19] was 53.1 µM and the GI50 [20] was 36.8 µM. It also gave a TGI [20] greater than 100 µM, a GI50 [21] of 24.3 µM and a TGI [21] of 57 µM. It also gave a GI50 [22] greater than 43.3 µM, a TGI [22] greater than 67 µM and a GI50 [23] of 28.7 µM. The TGI [23] was greater than 72.3 µM, the GI50 [24] was 31.2 µM and the TGI [24] was greater than 94.6 µM. It also gave a GI50 [25] of 41.7 µM, a TGI [25] greater than 81.8 µM and a GI50 [26] of 22.4 µM. The TGI [26] was greater than 31.6 µM, the GI50 [27] was 53.7 µM and the TGI [27] was greater than 100 µM. It also gave a GI50 [28] of 26.1 µM, a TGI [28] of 61.6 µM and a GI50 [29] greater than 100 µM. The TGI [29] was greater than 100 µM, the GI50 [30] was 27.9 µM and the TGI [30] was 83.6 µM. The GI50 [31] was greater than 50.9 µM, the TGI [31] was greater than 78.7 µM and the GI50 [32] was 22.2 µM. The TGI [32] was greater than 100 µM, the GI50 [33] was 32.2 µM and the TGI [33] was greater than 66.3 µM. For the same molecule, the GI50 [34] was 22.6 µM, the TGI [34] was 48.3 µM and the GI50 [35] was greater than 51.8 µM. The TGI [35] was greater than 85.1 µM, the GI50 [36] was greater than 45.6 µM and the TGI [36] was greater than 64.8 µM. For the same molecule, the GI50 [37] was 19.6 µM, the TGI [37] was 43.7 µM and the GI50 [38] was greater than 48.4 µM. The TGI [38] was greater than 84.5 µM, the GI50 [39] was 29.8 µM and the TGI [39] was greater than 60.6 µM. The GI50 [40] was greater than 79.5 µM, the TGI [40] was greater than 100 µM and the GI50 [41] was greater than 42.5 µM. For the same molecule, the TGI [41] was greater than 63.6 µM, the GI50 [42] was 18.6 µM and the TGI [42] was 39.2 µM. The GI50 [43] was 23.3 µM, the TGI [43] was greater than 67.3 µM and the GI50 [44] was 46.2 µM. It also gave a TGI [44] greater than 100 µM, a GI50 [45] of 24.5 µM and a TGI [45] of 95.3 µM. It also gave a GI50 [46] greater than 53.4 µM, a TGI [46] greater than 75.2 µM and a GI50 [47] of 34.5 µM. For the same molecule, the TGI [47] was greater than 78.1 µM, the GI50 [48] was 25.1 µM and the TGI [48] was 66.5 µM. The GI50 [49] was 19 µM, the TGI [49] was 64.1 µM and the GI50 [50] was 51.1 µM. For the same molecule, the TGI [50] was greater than 100 µM, the GI50 [51] was 37.4 µM and the TGI [51] was greater than 74.3 µM. For the same molecule, the GI50 [52] was 22.6 µM, the TGI [52] was 61.1 µM and the GI50 [53] was 61.5 µM. It also gave a TGI [53] greater than 100 µM, a GI50 [54] of 25.9 µM and a TGI [54] greater than 60.7 µM. The GI50 [55] was 16.7 µM and the TGI [55] was 37.6 µM.
`CCCCOc1ccc(/C=C/C2=[N+](CCO)CCO2)cc1` was tested, and the TGI [1] was 86.5 µM, the TGI [2] was greater than 100 µM and the TGI [3] was greater than 100 µM. It also gave a TGI [4] greater than 100 µM, a TGI [5] greater than 100 µM and a TGI [7] greater than 100 µM. For the same molecule, the TGI [8] was greater than 100 µM, the TGI [9] was greater than 100 µM and the TGI [56] was 82.8 µM. It also gave a TGI [57] greater than 100 µM, a TGI [11] of 63.3 µM and a TGI [12] greater than 100 µM. For the same molecule, the TGI [13] was 67.1 µM, the TGI [58] was greater than 100 µM and the TGI [59] was greater than 100 µM. For the same molecule, the TGI [60] was greater than 100 µM, the TGI [15] was greater than 100 µM and the TGI [18] was greater than 100 µM. For the same molecule, the TGI [19] was greater than 100 µM, the TGI [20] was greater than 100 µM and the TGI [21] was greater than 100 µM. It also gave a TGI [22] greater than 100 µM, a TGI [23] greater than 100 µM and a TGI [24] greater than 100 µM. For the same molecule, the TGI [25] was greater than 100 µM, the TGI [26] was 74.7 µM and the TGI [27] was greater than 100 µM. For the same molecule, the TGI [61] was greater than 100 µM, the TGI [28] was greater than 100 µM and the TGI [29] was 31.4 µM. For the same molecule, the TGI [30] was 48.3 µM, the TGI [31] was greater than 100 µM and the TGI [62] was greater than 100 µM. The TGI [63] was greater than 100 µM, the TGI [34] was greater than 100 µM and the TGI [35] was 54.3 µM. The TGI [36] was greater than 100 µM, the TGI [37] was greater than 100 µM and the TGI [38] was 40.2 µM. The TGI [39] was greater than 100 µM, the TGI [40] was 66.5 µM and the TGI [41] was 70 µM. For the same molecule, the TGI [64] was greater than 100 µM, the TGI [42] was greater than 100 µM and the TGI [43] was greater than 100 µM. For the same molecule, the TGI [44] was greater than 100 µM, the TGI [45] was greater than 100 µM and the TGI [46] was greater than 100 µM. It also gave a TGI [47] greater than 100 µM, a TGI [48] greater than 100 µM and a TGI [49] greater than 100 µM. For the same molecule, the TGI [50] was 62.7 µM, the TGI [51] was greater than 100 µM and the TGI [65] was greater than 100 µM. For the same molecule, the TGI [52] was greater than 100 µM, the TGI [53] was greater than 100 µM and the TGI [54] was greater than 100 µM. It also gave a TGI [55] of 96.2 µM.
